The values that follow are results of earlier work, collected in patent US20160051468A1, “Compositions for Prevention and/or Treatment of Gastrointestinal Imbalances in Digestive Disorders” (BRIGHT DRINKS INC., priority 2013, published 2016).

In data set [1] the test system is NF-κB. The settings on record: human colon carcinoma cell line.
In data set [2] the test system is DNA. The settings on record: hydroxyl radical attack, in vitro.
Data set [3] relates to TNFα. The following applies: LPS-stimulated macrophage cell line; dose-response fashion.
In data set [4] the test system is H. pylori.
The conditions of data set [5]: in vitro, compared with other tea catechins.
Data set [6] concerns NF-κB. The settings on record: human IEC lines; by inhibiting I-κB kinase activity.

As to `CC(=O)O` [acetate], the “suppression of NF-κB reporter activity, relative potency” value in data set [1] was “slightly less effective”.

With `O=C(O[C@@H]1Cc2c(O)cc(O)cc2O[C@@H]1c1cc(O)c(O)c(O)c1)c1cc(O)c(O)c(O)c1` [EGCG, epigallocatechin gallate], the “reduction of oxidative damage sustained by DNA” value in data set [2] was “highly active”. Moreover, in data set [3], the TNFα protein levels entry is recorded as “significant decrease”. Moreover, the “minimum-inhibitory-concentration (MIC) for 90% of isolates” value in data set [4] (110 mostly clinical isolates of H. pylori) was 32 μg per mL. In data set [4] (H. pylori in vitro), the “concentration with bactericidal effect” value is recorded as 4 times the MIC and the “concentration with bacteriostatic effect” value is listed as 2 times the MIC. In data set [5], the “scavenging of superoxide anion and hydroxyl radical” value is “most effective of all catechins”. Besides, the NF-κB activation entry in data set [6] is “blocking NF-κB activation”.

Consider `CCC(=O)O` [Propionate], for which the “suppression of NF-κB reporter activity, relative potency” value in data set [1] is “equipotent”.
